In one experiment the target is T1, hAC8 (Homo sapiens, UniProt P40145).
T1 construct: expressed in transfected cells
Put plainly: Cyclic AMP accumulation in HEK cells stably expressing AC8, stimulated with A23187 (HTRF). It is filed as cell-based. The settings on record: HEK-AC8 cells; for inhibition at 30 µM: HEK293; for IC50: read-out: HEK-AC8 IC50. As for the experimental part:
(§1) Fresh powders of several robust inhibitors (>90% inhibition) were evaluated in multiple confirmation assays assessing the dose response relationship for inhibiting AC1 and AC8 activity. Confirmation assays used A23817 to selectively stimulate recombinant AC1 or AC8 in the HEK cell background (Cumbay and Watts (2001), J. Pharmacol Exp Ther 297:1201-1399). This approach takes advantage of one unique regulatory property of AC1 for the development of selective inhibitors. Both AC1 and AC8 are robustly activated by Ca^2+/CaM under a variety of conditions, whereas the effects of Ca^2+/CaM on AC3 are modest and conditional requiring activation by G proteins. Previous studies have identified unique Ca^2+/CaM binding domains as one possible site of interaction to achieve AC1 (vs. AC8) selectivity (Masada et al., 2012, Biochemistry 51:7917-7929).
(§2) The primary technology we employed to measure cAMP accumulation was a homogenous time-resolved fluorescence (HTRF) assay, the same technology utilized in the primary screen. […] This could be due to either 1) the chemical scaffolds are exquisitely selective toward the AC family of enzymes or 2) the library has not been screened against a sufficient number of targets. The answer is likely a combination of the two; nonetheless, the lack of biological data to date bodes well for these series and any potential off-target promiscuity.
(§3) Human embryonic kidney (HEK) cells stably expressing AC1, AC8, or AC1 with the MOR were cultured in Dulbecco's Modified Eagle Medium (Life Technologies, Grand Island, N.Y.) supplemented with 5% bovine calf serum (Hyclone, Logan, Utah), 5% fetal clone I (Hyclone), Antibiotic-Antimycotic (Life Technologies), and G418 (Invivogen, San Diego, Calif.) (HEK-AC1), or hygromycin B (Fisher Scientific, Pittsburgh, Pa.) (HEK-AC8), or G418 and puromycin (Sigma-Aldrich) (HEK-AC1/MOR). Chinese hamster ovary (CHO) cells expressing the MOR (CHO-MOR) in the PathHunter® β-Arrestin GPCR assay platform were purchased from DiscoveRx (Freemont, Calif.). Cells were grown in Ham's F12 media supplemented with 1 mM L-glutamine (Thermo Scientific, West Palm Beach, Fla.), 10% fetal bovine serum (Hyclone), 50 U/ml penicillin, 50 μg/ml streptomycin (Life Technologies), G418 and hygromycin B. Cells were grown and frozen as previously described (J. M. Conley, et al., J Vis Exp, e51218 (2014)).
(§4) Cyclic AMP accumulation was measured as previously described (Brust, et al., J. Pharmacol. Exp. Ther. 352, 480-493(2015)). Briefly, cryopreserved cells were thawed, resuspended in optiMEM (Life Technologies), and plated in white, flat bottom, low-volume, tissue culture-treated 384 well plates (PerkinElmer, Shelton, Conn.). Plates with cells were incubated in a 37° C. humidified incubator for 1 h. Inhibitors were added and plates were incubated at room temperature for 30 min followed by the addition of AC stimulants in the presence of 500 μM IBMX. Cells were incubated at room temperature for 1 h and cAMP accumulation was measured using Cisbio's cAMP kit (Cisbio Bioassays, Bedford, Mass.) according to the manufacturer's instructions.
(TR-FRET usually uses a lanthanide donor and a delayed reading to cut background.)

A further experiment deals with T2, hAC1 (Homo sapiens, UniProt Q08828).
T2 construct: expressed in transfected cells
The experiment can be described thus: Cyclic AMP accumulation in HEK cells stably expressing AC1, stimulated with A23187 (HTRF). It is filed as cell-based. The settings on record: HEK-AC1 cells; for inhibition at 30 µM: HEK293; for IC50: read-out: HEK-AC1 IC50. The protocol:
The development and mechanistic characterization of AC1-selective small molecule inhibitors is believed to provide novel non-opioid weapons in the war on chronic pain. We identified our initial hits via screening 10,000 selected compounds from the Life Chemicals collection. The screen was carried out using HEK cells stably expressing AC1 (HEK-AC1) and cyclic AMP accumulation was stimulated using the Ca^2+ ionophore, A23187 to selectively activate AC1. Compounds with potential chemical liabilities and PAINs were removed from further evaluation (Baell and Holloway, J. Med. Chem. 2010, 53, 2719-2740).
as §1, §2, §3, §4

Each structure is given as a SMILES string.

T2 sequence (Q08828 whole entry): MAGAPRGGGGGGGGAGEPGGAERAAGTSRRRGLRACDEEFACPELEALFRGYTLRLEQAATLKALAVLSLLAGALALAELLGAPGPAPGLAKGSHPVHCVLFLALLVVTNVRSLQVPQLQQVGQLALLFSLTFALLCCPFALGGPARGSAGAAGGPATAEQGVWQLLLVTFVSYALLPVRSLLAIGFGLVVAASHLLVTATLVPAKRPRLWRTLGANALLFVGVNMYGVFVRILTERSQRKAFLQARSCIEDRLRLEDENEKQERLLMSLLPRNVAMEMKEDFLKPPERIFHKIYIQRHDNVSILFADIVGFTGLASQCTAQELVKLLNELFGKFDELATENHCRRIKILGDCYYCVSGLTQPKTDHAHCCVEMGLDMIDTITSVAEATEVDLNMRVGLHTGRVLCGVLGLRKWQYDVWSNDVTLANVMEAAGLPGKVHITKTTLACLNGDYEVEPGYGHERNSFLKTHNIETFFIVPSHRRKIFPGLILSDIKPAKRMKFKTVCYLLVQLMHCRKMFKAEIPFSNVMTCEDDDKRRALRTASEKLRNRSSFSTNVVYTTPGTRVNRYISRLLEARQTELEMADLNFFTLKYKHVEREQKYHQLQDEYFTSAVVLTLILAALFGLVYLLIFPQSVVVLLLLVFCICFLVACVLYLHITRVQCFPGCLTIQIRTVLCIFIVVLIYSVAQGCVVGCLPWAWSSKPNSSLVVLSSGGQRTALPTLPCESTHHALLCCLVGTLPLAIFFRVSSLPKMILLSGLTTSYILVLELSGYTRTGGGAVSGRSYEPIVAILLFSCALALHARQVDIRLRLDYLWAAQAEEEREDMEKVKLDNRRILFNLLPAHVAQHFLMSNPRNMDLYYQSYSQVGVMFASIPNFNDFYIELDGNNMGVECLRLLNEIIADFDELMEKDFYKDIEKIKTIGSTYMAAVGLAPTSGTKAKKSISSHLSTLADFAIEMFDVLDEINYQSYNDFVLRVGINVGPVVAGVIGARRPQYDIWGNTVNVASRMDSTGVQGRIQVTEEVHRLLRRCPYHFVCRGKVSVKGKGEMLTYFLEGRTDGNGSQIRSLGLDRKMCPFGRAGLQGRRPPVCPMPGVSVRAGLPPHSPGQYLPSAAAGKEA
T1 sequence (P40145 whole entry): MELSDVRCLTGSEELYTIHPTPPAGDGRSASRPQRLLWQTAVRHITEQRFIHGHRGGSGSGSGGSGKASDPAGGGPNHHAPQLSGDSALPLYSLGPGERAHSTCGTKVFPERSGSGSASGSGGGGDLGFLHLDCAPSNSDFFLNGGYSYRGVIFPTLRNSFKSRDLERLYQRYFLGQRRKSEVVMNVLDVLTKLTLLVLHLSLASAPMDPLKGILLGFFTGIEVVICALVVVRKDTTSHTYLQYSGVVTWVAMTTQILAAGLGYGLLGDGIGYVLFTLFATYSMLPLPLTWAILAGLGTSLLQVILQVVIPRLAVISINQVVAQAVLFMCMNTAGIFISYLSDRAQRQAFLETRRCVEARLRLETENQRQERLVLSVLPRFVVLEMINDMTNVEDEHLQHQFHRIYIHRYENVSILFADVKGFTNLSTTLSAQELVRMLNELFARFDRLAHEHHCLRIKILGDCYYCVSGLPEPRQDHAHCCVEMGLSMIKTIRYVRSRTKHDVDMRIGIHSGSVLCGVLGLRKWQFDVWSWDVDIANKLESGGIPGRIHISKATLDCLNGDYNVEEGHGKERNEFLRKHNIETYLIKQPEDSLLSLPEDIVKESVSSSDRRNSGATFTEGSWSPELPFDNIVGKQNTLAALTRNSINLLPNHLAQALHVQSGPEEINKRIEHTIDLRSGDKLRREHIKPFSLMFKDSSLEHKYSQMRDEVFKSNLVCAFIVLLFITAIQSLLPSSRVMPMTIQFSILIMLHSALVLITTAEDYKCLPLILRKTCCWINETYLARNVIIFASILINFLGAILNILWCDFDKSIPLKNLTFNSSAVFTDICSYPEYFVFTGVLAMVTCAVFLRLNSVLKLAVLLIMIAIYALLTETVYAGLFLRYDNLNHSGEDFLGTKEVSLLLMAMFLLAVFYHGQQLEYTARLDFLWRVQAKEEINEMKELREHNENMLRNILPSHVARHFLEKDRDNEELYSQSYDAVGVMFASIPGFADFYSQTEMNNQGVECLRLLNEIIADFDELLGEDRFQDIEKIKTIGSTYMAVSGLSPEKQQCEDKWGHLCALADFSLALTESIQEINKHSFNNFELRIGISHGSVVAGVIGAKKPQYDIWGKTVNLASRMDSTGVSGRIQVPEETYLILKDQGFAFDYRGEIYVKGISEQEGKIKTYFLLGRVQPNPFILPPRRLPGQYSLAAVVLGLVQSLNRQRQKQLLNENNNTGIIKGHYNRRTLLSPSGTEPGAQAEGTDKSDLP

As to `O=C(Nc1nnc(-c2ccc3c(c2)OCCO3)o1)c1ccccc1` [AC10001, N-(5-(2,3-dihydrobenzo[b][1,4]dioxin-6-yl)-1,3,4-oxadiazol-2-yl)benzamide], the inhibition at 30 µM on hAC8 was determined as 24 ± 7%; at hAC1, 60 ± 3%. Also, the 50% inhibitory concentration (IC50) at hAC8 stood at 102 ± 26 µM; at hAC1, 31 ± 3 µM.

In the case of `O=C(Nc1nnc(-c2ccc3c(c2)CCCC3)o1)c1ccccc1` [AC10002, N-(5-(5,6,7,8-tetrahydronaphthalen-2-yl)-1,3,4-oxadiazol-2-yl)benzamide], the inhibition at 30 µM on hAC8 worked out at 80 ± 6%; at hAC1, 100 ± 1%. Besides, the IC50 was 19.1 ± 5 µM on hAC8 and 3.4 ± 1 µM at hAC1.

Turning to `O=C(Nc1nnc(C2CCCCC2)o1)c1ccccc1` [AC10003, N-(5-cyclohexyl-1,3,4-oxadiazol-2-yl)benzamide], the inhibition at 30 µM on hAC8 is 3 ± 6%. For the same compound, at hAC1, the inhibition at 30 µM turned out to be 65 ± 4% and the IC50 turned out to be 24.5 ± 2 µM.

As for `O=C(Nc1nnc(-c2ccc(F)cc2)o1)c1ccccc1` [AC10004, N-(5-(4-fluorophenyl)-1,3,4-oxadiazol-2-yl)benzamide], the inhibition at 30 µM at hAC8 worked out at 8 ± 2%. On hAC1, the inhibition at 30 µM worked out at 65 ± 8% and the concentration for half-maximal inhibition (IC50) came to 29 ± 10 µM.

`O=C(Nc1nnc(-c2ccc3c(c2)CCCC3)o1)c1ccc(Br)cc1` [AC10005, 4-bromo-N-(5-(5,6,7,8-tetrahydronaphthalen-2-yl)-1,3,4-oxadiazol-2-yl)benzamide]: on hAC8, the inhibition at 30 µM worked out at 64 ± 13% and the IC50 came to 27 ± 8 µM. In addition, on hAC1, the inhibition at 30 µM was 74 ± 4% and the IC50 was 12.2 ± 3 µM.

As to `O=C(Nc1nnc(-c2cccs2)o1)c1ccccc1` [AC10006, N-(5-(thiophen-2-yl)-1,3,4-oxadiazol-2-yl)benzamide], the inhibition at 30 µM on hAC8 is 18 ± 2%; at hAC1, 56 ± 5%. Further, the figures for the IC50 on hAC8 and at hAC1 were 101 ± 3 µM and 29 ± 3 µM, respectively.

Turning to `O=C(Nc1nnc(C2CCCCC2)o1)c1ccc(Br)cc1` [AC10007, 4-bromo-N-(5-cyclohexyl-1,3,4-oxadiazol-2-yl)benzamide], at hAC8, the inhibition at 30 µM was 71 ± 11% and the IC50 is 25 ± 8 µM. In addition, at hAC1, the inhibition at 30 µM stood at 82 ± 7% and the IC50 stood at 8.6 ± 3 µM.

As for `O=C(Nc1nnc(-c2ccc(F)cc2)o1)c1ccc(Br)cc1` [AC10008, 4-bromo-N-(5-(4-fluorophenyl)-1,3,4-oxadiazol-2-yl)benzamide], at hAC8, the inhibition at 30 µM was determined as 33 ± 3% and the IC50 was 71 ± 18 µM. For the same compound, on hAC1, the inhibition at 30 µM was found to be 78 ± 3% and the IC50 came to 10 ± 1 µM.

In the case of `O=C(Nc1nnc(-c2cccs2)o1)c1ccc(Br)cc1` [AC10009, 4-Bromo-N-(5-(thiophen-2-yl)-1,3,4-oxadiazol-2-yl)benzamide], on hAC8, the inhibition at 30 µM is 41 ± 9% and the IC50 is 55 ± 20 µM. For the same compound, at hAC1, the inhibition at 30 µM came out at 81 ± 1% and the IC50 was determined as 7.7 ± 1 µM.

`CC(C)Oc1ccc(C(=O)Nc2nnc(-c3ccc4c(c3)CCCC4)o2)cc1` [AC10010, 4-isopropoxy-N-(5-(5,6,7,8-tetrahydronaphthalen-2-yl)-1,3,4-oxadiazol-2-yl)benzamide]: the inhibition at 30 µM on hAC8 is 63 ± 7%; on hAC1 it was 77 ± 13%. The IC50 came to 12.6 ± 6 µM on hAC8 and 9.9 ± 7 µM at hAC1.

Regarding `CSc1cccc(C(=O)Nc2nnc(C3CCCCC3)o2)c1` [AC10011, N-(5-cyclohexyl-1,3,4-oxadiazol-2-yl)-3-(methylthio)benzamide], on hAC8, the inhibition at 30 µM turned out to be 43 ± 6% and the half-inhibitory concentration (IC50) stood at 61 ± 22 µM. In addition, at hAC1, the inhibition at 30 µM amounted to 77 ± 8% and the IC50 worked out at 6.6 ± 3 µM.

Regarding `CSc1cccc(C(=O)Nc2nnc(-c3cccs3)o2)c1` [AC10012, 3-(methylthio)-N-(5-(thiophen-2-yl)-1,3,4-oxadiazol-2-yl)benzamide], on hAC8, the inhibition at 30 µM amounted to 34 ± 1% and the IC50 worked out at 66 ± 2 µM. In addition, at hAC1, the inhibition at 30 µM was determined as 84 ± 5% and the IC50 came out at 11 ± 2 µM.

Consider `CSc1cccc(C(=O)Nc2nnc(-c3ccc4c(c3)CCCC4)o2)c1` [AC10013, 3-(methylthio)-N-(5-(5,6,7,8-tetrahydronaphthalen-2-yl)-1,3,4-oxadiazol-2-yl)benzamide], for which the figures for the inhibition at 30 µM at hAC8 and on hAC1 were 68 ± 5% and 97 ± 4%, respectively. Also, the half-inhibitory concentration (IC50) on hAC8 worked out at 9.4 ± 2 µM; at hAC1, 1.7 ± 0.7 µM.

On to `O=C(Nc1nnc(-c2ccc3c(c2)OCCO3)o1)c1ccc(Br)cc1` [AC10015, 4-bromo-N-(5-(2,3-dihydrobenzo[b][1,4]dioxin-6-yl)-1,3,4-oxadiazol-2-yl)benzamide], for which, on hAC8, the inhibition at 30 µM came out at 68 ± 0.5% and the IC50 turned out to be 23 ± 3 µM. Further, at hAC1, the inhibition at 30 µM amounted to 101 ± 0.4% and the IC50 came out at 3.4 ± 0.6 µM.

Turning to `COc1cccc(C(=O)Nc2nnc(-c3ccc4c(c3)CCCC4)o2)c1` [AC10016, 3-methoxy-N-(5-(5,6,7,8-tetrahydronaphthalen-2-yl)-1,3,4-oxadiazol-2-yl)benzamide], at hAC8, the inhibition at 30 µM worked out at 55 ± 3% and the 50% inhibitory concentration (IC50) came to 25 ± 4 µM. At hAC1, the inhibition at 30 µM stood at 99% and the IC50 came out at 3.1 ± 0.4 µM.

Regarding `CC(C)Oc1ccc(C(=O)Nc2nnc(-c3cccs3)o2)cc1` [AC10017, 4-isopropoxy-N-(5-(thiophen-2-yl)-1,3,4-oxadiazol-2-yl)benzamide], the inhibition at 30 µM on hAC8 turned out to be 35 ± 4%; on hAC1, 84 ± 5%. Also, the IC50 at hAC8 came out at 83 ± 22 µM; on hAC1, 10.7 ± 2 µM.

In the case of `COc1ccc(C(=O)Nc2nnc(-c3cccs3)o2)cc1` [AC10018, 4-methoxy-N-(5-(thiophen-2-yl)-1,3,4-oxadiazol-2-yl)benzamide], the inhibition at 30 µM at hAC8 was found to be 10 ± 7%. On hAC1, the inhibition at 30 µM was determined as 80 ± 5% and the IC50 was found to be 15 ± 2 µM.

Turning to `CSc1ccc(C(=O)Nc2nnc(-c3ccc4c(c3)OCCO4)o2)cc1` [AC10020, 4-methylthio-N-(5-(2,3-dihydrobenzo[b][1,4]dioxin-6-yl)-1,3,4-oxadiazol-2-yl)benzamide], on hAC8, the inhibition at 30 µM amounted to 37 ± 9% and the IC50 turned out to be 76 ± 39 µM. Moreover, on hAC1, the inhibition at 30 µM was 88 ± 5% and the IC50 was 9.5 ± 1 µM.

On to `O=C(Nc1nnc(C2CCCCC2)o1)c1cccc(C(F)(F)F)c1` [AC10021, N-(5-cyclohexyl-1,3,4-oxadiazol-2-yl)-3-(trifluoromethyl)benzamide], for which the results for the inhibition at 30 µM on hAC8 and on hAC1 were 62 ± 8% and 99 ± 1%, respectively. Moreover, the IC50 at hAC8 was 33 ± 8 µM; on hAC1 it was 6 ± 0.6 µM.

Take `O=C(Nc1nnc(-c2ccc3c(c2)OCCO3)o1)c1cccc(C(F)(F)F)c1` [AC10023, N-(5-(2,3-dihydrobenzo[b][1,4]dioxin-6-yl)-1,3,4-oxadiazol-2-yl)-3-(trifluoromethyl)benzamide]: on hAC8, the inhibition at 30 µM came out at 60 ± 8% and the IC50 stood at 32 ± 12 µM. Besides, at hAC1, the inhibition at 30 µM turned out to be 100 ± 0.2% and the IC50 turned out to be 5.1 ± 0.7 µM.

`Cc1ccc(C(=O)Nc2nnc(C3CCCCC3)o2)cc1C` [AC10024, N-(5-cyclohexyl-1,3,4-oxadiazol-2-yl)-3,4-dimethylbenzamide]: the inhibition at 30 µM on hAC8 is 57 ± 7%; on hAC1, 85 ± 4%. In addition, the IC50 at hAC8 is 44 ± 6 µM; on hAC1 it was 8.1 ± 2 µM.

On to `CC(C)Oc1ccc(C(=O)Nc2nnc(C3CCCCC3)o2)cc1` [AC10025, N-(5-cyclohexyl-1,3,4-oxadiazol-2-yl)-4-isopropoxybenzamide], for which the inhibition at 30 µM on hAC8 turned out to be 35 ± 8%; at hAC1, 86 ± 7%. The IC50 on hAC8 turned out to be 53 ± 21 µM; on hAC1, 10.1 ± 1 µM.

Broadly, the inhibition is the drop in the measured response relative to a control, in per cent. What is called IC50 is the concentration that inhibits the measured activity by half.
